Results as given in patent US20240252488A1 (KOREA RESEARCH INSTITUTE OF CHEMICAL TECHNOLOGY, priority 2020, published 2024).

Legend:
FADD−/− Jurkat cells = test: Necroptosis inhibition assay, TNF-α-induced necroptosis (CellTiter-Glo 2.0); format: cell-based, human; details: TNF-α 15 ng/mL; for Necroptosis inhibition assay (Rescue %) 1 μM: compound 1 μM; for Necroptosis inhibition assay (Rescue %) 10 μM: compound 10 μM
How it was run: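 Necroptosis induced by 15 ng/mL TNF-α (final) for 20–24 h at 37 °C, after a 30 min room-temperature pretreatment of FADD-deficient Jurkat cells with 0.1, 1 or 10 μM compound. ATP-based luminescence gave viability, from which inhibition rate and cytotoxicity were derived.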

MLKL [1] = molecular target: T1, MLKL (Homo sapiens, UniProt Q8NB16); test: MLKL degradation assay in HepG2 cell line (western blot); format: cell-based; parameters: endogenous in cells; host or cells: HepG2 or HaCaT; details: cell line not given; for Degradation assay (Degradation %) 1 μM: compound 1 μM; for Degradation assay (Degradation %) 10 μM: compound 10 μM
T1 sequence (Q8NB16 1-471): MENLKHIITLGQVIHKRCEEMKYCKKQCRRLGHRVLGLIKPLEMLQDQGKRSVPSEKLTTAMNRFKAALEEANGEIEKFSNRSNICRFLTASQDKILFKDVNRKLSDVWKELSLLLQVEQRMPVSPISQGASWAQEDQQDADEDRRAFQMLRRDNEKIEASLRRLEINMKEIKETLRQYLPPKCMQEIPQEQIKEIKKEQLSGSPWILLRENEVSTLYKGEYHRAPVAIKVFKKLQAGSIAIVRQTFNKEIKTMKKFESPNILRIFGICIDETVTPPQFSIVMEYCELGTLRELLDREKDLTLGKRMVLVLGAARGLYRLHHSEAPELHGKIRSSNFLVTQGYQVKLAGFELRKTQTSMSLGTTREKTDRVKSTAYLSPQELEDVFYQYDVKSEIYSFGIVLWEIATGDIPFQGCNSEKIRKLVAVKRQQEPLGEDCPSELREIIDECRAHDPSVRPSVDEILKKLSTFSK
How it was run: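 Western blot chemiluminescence of MLKL in equal-protein lysates (10-15 μg, BCA-adjusted). Before lysis, HepG2 cells were exposed to 1 or 10 μM (final) test compound for 20-24 h at 37 °C.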

MLKL [2] = molecular target: T1, MLKL; test: Measurement of binding affinity with MLKL receptor (competitive binding assay, Kd); parameters: made in house; host or cells: HEK 293 cell line (T7 phage in E. coli BL21-derived host is also described)
How it was run: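 MLKL was produced in HEK 293 cells and tagged with DNA for detection. Liganded beads were blocked with excess biotin and washed to cut non-specific binding, then compounds (111× DMSO stocks, 0.9% DMSO in assay) competed for binding. Eluate kinase was measured by qPCR for Kd.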

Degradation assay (Degradation %) 1 μM (MLKL [1]) [%]	Degradation assay (Degradation %) 10 μM (MLKL [1]) [%]	Kd (MLKL [2]) [nM]	Compound	Necroptosis inhibition assay (Rescue %) 1 μM (FADD−/− Jurkat cells; FADD−/− Jurkat cells) [%]	Necroptosis inhibition assay (Rescue %) 10 μM (FADD−/− Jurkat cells; FADD−/− Jurkat cells) [%]	Necroptosis inhibition assay (Rescue %) 1 μM (FADD−/− Jurkat cells) [%]	Necroptosis inhibition assay (Rescue %) 10 μM (FADD−/− Jurkat cells) [%]
75.28	74.89	0.79	Nc1ncc(-c2cnn(C3CCN(C(=O)C4CCN(C(=O)C5CCN(c6cccc7nnn(C8CCC(=O)NC8=O)c(=O)c67)CC5)CC4)CC3)c2)nc1C(=O)O[C@@H](C(=O)Nc1ccc(F)cc1)c1ccccc1 (stereo partly drawn) [TDH-414, (R)-2-((4-fluorophenyl)amino)-2-oxo-1-phenylethyl 3-amino-6-(1-(1-(1-(1-(3-(2,6-dioxopiperidin-3-yl)-4-oxo-3,4-dihydrobenzo[d][1,2,3]triazin-5-yl)piperidine-4-carbonyl)piperidine-4-carbonyl)piperidin-4-yl)-1H-pyrazol-4-yl)pyrazine-2-carboxylate]	17.52	13.19	–	–
85.37	88.15	2.5	COc1cccc(NC(=O)[C@H](OC(=O)c2nc(-c3cnn(C4CCN(CCCN5CCN(C(=O)COc6ccc7c(c6)C(=O)N(C6CCC(=O)NC6=O)C7=O)CC5)CC4)c3)cnc2N)c2ccccc2)c1 (stereo partly drawn) [TDH-486, (R)-2-((3-methoxyphenyl)amino)-2-oxo-1-phenylethyl 3-amino-6-(1-(1-(3-(4-(2-((2-(2,6-dioxopiperidin-3-yl)-1,3-dioxoisoindolin-5-yl)oxy)acetyl)piperazin-1-yl)propyl)piperidin-4-yl)-1H-pyrazol-4-yl)pyrazine-2-carboxylate]	77.72	34.5	–	–
77.13	63.72	2.3	Nc1ncc(-c2cnn(C3CCN(C(=O)CCC4CCN(C(=O)CC5CCN(c6cccc7c6C(=O)N(C6CCC(=O)NC6=O)C7=O)CC5)CC4)CC3)c2)nc1C(=O)O[C@@H](C(=O)Nc1ccc(F)cc1)c1ccccc1 (stereo partly drawn) [TDH-429, (R)-2-((4-fluorophenyl)amino)-2-oxo-1-phenylethyl 3-amino-6-(1-(1-(3-(1-(2-(1-(2-(2,6-dioxopiperidin-3-yl)-1,3-dioxoisoindolin-4-yl)piperidin-4-yl)acetyl)piperidin-4-yl)propanoyl)piperidin-4-yl)-1H-pyrazol-4-yl)pyrazine-2-carboxylate]	18.34	11.03	–	–
–	37.75	5.7	Nc1ncc(-c2cnn([C@@H]3CCN(CCOCCOCCNC(=O)CNc4cccc5c4C(=O)N(C4CCC(=O)NC4=O)C5=O)C3)c2)nc1C(=O)OC(C(=O)Nc1ccc(F)cc1)c1ccccc1 (stereo partly drawn) [TDH-267, 2-((4-fluorophenyl)amino)-2-oxo-1-phenylethyl 3-amino-6-(1-((3R)-1-(2-(2-(2-(2-((2-(2,6-dioxopiperidin-3-yl)-1,3-dioxoisoindolin-4-yl)amino)acetamido)ethoxy)ethoxy)ethyl)pyrrolidin-3-yl)-1H-pyrazol-4-yl)pyrazine-2-carboxylate]	–	–	21.58	60.07
45.01	10.1	5.7	Nc1ncc(-c2cnn([C@H]3CCN(CC4CCN(C(=O)CNc5cccc6c5C(=O)N(C5CCC(=O)NC5=O)C6=O)CC4)C3)c2)nc1C(=O)OC(C(=O)Nc1ccc(F)cc1)c1ccccc1 (stereo partly drawn) [TDH-281, 2-((4-fluorophenyl)amino)-2-oxo-1-phenylethyl 3-amino-6-(1-((3S)-1-((1-((2-(2,6-dioxopiperidin-3-yl)-1,3-dioxoisoindolin-4-yl)glycyl)piperidin-4-yl)methyl)pyrrolidin-3-yl)-1H-pyrazol-4-yl)pyrazine-2-carboxylate]	–	–	29.65	26.95
17.47	58.93	8.1	Nc1ncc(-c2cnn(C3CCN(CCOCCOCCOCCNC(=O)C4CN(c5cccc6c5C(=O)N(C5CCC(=O)NC5=O)C6=O)C4)CC3)c2)nc1C(=O)O[C@@H](C(=O)Nc1ccc(F)cc1)c1ccccc1 (stereo partly drawn) [TDH-141, (R)-2-((4-fluorophenyl)amino)-2-oxo-1-phenylethyl 3-amino-6-(1-(1-(1-(1-(2-(2,6-dioxopiperidin-3-yl)-1,3-dioxoisoindolin-4-yl)azetidin-3-yl)-1-oxo-5,8,11-trioxa-2-azatridecan-13-yl)piperidin-4-yl)-1H-pyrazol-4-yl)pyrazine-2-carboxylate]	–	–	2.72	10.22
64.37	50.39	0.54	Nc1ncc(-c2cnn(C3CCN(CCc4cn(C5CCN(C(=O)COc6ccc7c(c6)C(=O)N(C6CCC(=O)NC6=O)C7=O)CC5)nn4)CC3)c2)nc1C(=O)O[C@@H](C(=O)Nc1ccc(F)cc1)c1ccccc1 (stereo partly drawn) [TDH-451, (R)-2-((4-fluorophenyl)amino)-2-oxo-1-phenylethyl 3-amino-6-(1-(1-(2-(1-(1-(2-((2-(2,6-dioxopiperidin-3-yl)-1,3-dioxoisoindolin-5-yl)oxy)acetyl)piperidin-4-yl)-1H-1,2,3-triazol-4-yl)ethyl)piperidin-4-yl)-1H-pyrazol-4-yl)pyrazine-2-carboxylate]	19.55	17.67	–	–
48.66	81.15	1.6	Nc1ncc(-c2cnn(C3CCN(C[C@H]4CC[C@H](CNC(=O)CNc5ccc6c(c5)C(=O)N(C5CCC(=O)NC5=O)C6=O)CC4)CC3)c2)nc1C(=O)O[C@@H](C(=O)Nc1ccc(F)cc1)c1ccccc1 (stereo partly drawn) [TDH-348, (R)-2-((4-fluorophenyl)amino)-2-oxo-1-phenylethyl 3-amino-6-(1-(1-(((1r,4r)-4-((2-((2-(2,6-dioxopiperidin-3-yl)-1,3-dioxoisoindolin-5-yl)amino)acetamido)methyl)cyclohexyl)methyl)piperidin-4-yl)-1H-pyrazol-4-yl)pyrazine-2-carboxylate]	–	–	61.43	29.04
19.04	14.39	78	Nc1ncc(-c2cnn(C3CCN(CCCN4CCN(c5ccc6c(c5)C(=O)N(C5CCC(=O)NC5=O)C6=O)CC4)CC3)c2)nc1C(=O)N[C@@H](C(=O)Nc1ccc(F)cc1)c1ccccc1 (stereo partly drawn) [TDH-491, 3-amino-6-(1-(1-(3-(4-(2-(2,6-dioxopiperidin-3-yl)-1,3-dioxoisoindolin-5-yl)piperazin-1-yl)propyl)piperidin-4-yl)-1H-pyrazol-4-yl)-N-((R)-2-((4-fluorophenyl)amino)-2-oxo-1-phenylethyl)pyrazine-2-carboxamide]	0.07	−24.78	–	–
42.05	58.09	2.6	Nc1ncc(-c2cnn([C@H]3CCN(CC4CCN(C(=O)COc5ccc6c(c5)C(=O)N(C5CCC(=O)NC5=O)C6=O)CC4)C3)c2)nc1C(=O)OC(C(=O)Nc1ccc(F)cc1)c1ccccc1 (stereo partly drawn) [TDH-284, 2-((4-fluorophenyl)amino)-2-oxo-1-phenylethyl 3-amino-6-(1-((3S)-1-((1-(2-((2-(2,6-dioxopiperidin-3-yl)-1,3-dioxoisoindolin-5-yl)oxy)acetyl)piperidin-4-yl)methyl)pyrrolidin-3-yl)-1H-pyrazol-4-yl)pyrazine-2-carboxylate]	–	–	75.95	52.77
45.01	49.89	8.5	Nc1ncc(-c2cnn(C3CCN(CC4CCN(CC(=O)NCCCNc5cccc6c5C(=O)N(C5CCC(=O)NC5=O)C6=O)CC4)CC3)c2)nc1C(=O)OC(C(=O)Nc1ccc(F)cc1)c1ccccc1 (stereo not drawn) [TDH-235, 2-((4-fluorophenyl)amino)-2-oxo-1-phenylethyl 3-amino-6-(1-(1-((1-(2-((3-((2-(2,6-dioxopiperidin-3-yl)-1,3-dioxoisoindolin-4-yl)amino)propyl)amino)-2-oxoethyl)piperidin-4-yl)methyl)piperidin-4-yl)-1H-pyrazol-4-yl)pyrazine-2-carboxylate]	–	–	7.64	19.27
